Data as given in ChEMBL document CHEMBL1909046, “DrugMatrix in vitro pharmacology data”.

How the values were obtained:
[1] = biological target: T1, 5-hydroxytryptamine receptor 1A (Rattus norvegicus, UniProt P19327); format: cell membranes, CHO-K1, Membrane; conditions: for Ki: read-out: Ki; for all read-outs here: in other assays of this panel Not Active means under 50% inhibition at 10 µM
T1 sequence (P19327 whole entry): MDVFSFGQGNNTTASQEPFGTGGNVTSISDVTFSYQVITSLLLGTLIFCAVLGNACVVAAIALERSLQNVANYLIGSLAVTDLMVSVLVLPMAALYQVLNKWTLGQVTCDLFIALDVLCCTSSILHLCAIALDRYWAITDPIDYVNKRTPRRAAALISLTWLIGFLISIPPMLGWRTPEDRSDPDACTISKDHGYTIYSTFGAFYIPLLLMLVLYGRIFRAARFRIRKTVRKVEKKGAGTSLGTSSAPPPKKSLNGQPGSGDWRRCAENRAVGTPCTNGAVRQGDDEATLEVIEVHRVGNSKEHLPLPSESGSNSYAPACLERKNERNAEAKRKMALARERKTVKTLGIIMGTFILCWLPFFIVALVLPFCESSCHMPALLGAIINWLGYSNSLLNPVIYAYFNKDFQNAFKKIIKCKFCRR

Substance-P receptor = Substance-P receptor (Homo sapiens, UniProt P25103); format: cell membranes, Membrane; conditions: cho; note: in other assays of this panel Not Active means under 50% inhibition at 10 µM
Sequence of Substance-P receptor (P25103 whole entry): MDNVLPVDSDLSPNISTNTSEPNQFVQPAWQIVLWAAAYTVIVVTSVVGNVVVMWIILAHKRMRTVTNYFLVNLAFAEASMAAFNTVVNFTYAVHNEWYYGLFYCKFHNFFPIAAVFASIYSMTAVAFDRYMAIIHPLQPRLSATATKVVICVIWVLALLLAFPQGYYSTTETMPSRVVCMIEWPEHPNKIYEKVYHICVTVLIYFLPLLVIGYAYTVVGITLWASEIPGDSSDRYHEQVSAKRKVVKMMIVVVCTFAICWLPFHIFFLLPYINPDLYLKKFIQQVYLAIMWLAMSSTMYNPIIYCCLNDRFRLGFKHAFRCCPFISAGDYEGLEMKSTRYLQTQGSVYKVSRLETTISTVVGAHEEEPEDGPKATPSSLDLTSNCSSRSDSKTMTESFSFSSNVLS

[2] = biological target: T2, C-X-C chemokine receptor type 1 (Homo sapiens, UniProt P25024); note: in other assays of this panel Not Active means under 50% inhibition at 10 µM
T2 sequence (P25024 whole entry): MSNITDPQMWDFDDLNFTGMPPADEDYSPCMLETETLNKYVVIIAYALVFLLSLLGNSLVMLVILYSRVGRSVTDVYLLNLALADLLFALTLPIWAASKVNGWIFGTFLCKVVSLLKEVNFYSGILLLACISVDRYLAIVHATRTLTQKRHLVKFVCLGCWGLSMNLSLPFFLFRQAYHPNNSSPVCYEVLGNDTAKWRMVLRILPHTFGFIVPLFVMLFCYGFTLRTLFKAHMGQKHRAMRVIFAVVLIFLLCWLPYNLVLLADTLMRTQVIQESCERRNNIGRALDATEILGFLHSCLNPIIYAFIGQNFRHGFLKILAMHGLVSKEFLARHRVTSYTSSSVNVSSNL

[3] = DRUGMATRIX: Phosphodiesterase PDE3 enzyme inhibition (substrate: [3H]cAMP + cAMP); format: tissue-based, Homo sapiens; conditions: platelet; Not Active = under 50% inhibition at 10 µM
[4] = DRUGMATRIX: Calcium Channel Type L, Benzothiazepine radioligand binding (ligand: [3H] Diltiazem); format: cell membranes, Rattus norvegicus, Wistar, Brain, Membrane; conditions: Not Active = under 50% inhibition at 10 µM
Melanocortin receptor 4 = Melanocortin receptor 4 (Homo sapiens, UniProt P32245); format: cell membranes, Membrane; conditions: hek293; note: in other assays of this panel Not Active means under 50% inhibition at 10 µM
Sequence of Melanocortin receptor 4 (P32245 whole entry): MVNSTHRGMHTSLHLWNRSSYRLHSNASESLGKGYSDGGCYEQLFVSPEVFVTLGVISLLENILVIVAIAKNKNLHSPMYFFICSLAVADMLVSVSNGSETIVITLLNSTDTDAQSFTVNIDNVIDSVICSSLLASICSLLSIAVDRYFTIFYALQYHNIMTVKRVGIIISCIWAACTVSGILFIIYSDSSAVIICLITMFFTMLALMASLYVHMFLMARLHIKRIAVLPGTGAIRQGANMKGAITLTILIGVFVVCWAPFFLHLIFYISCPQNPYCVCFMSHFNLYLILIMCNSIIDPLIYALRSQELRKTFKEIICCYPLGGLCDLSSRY

[5] = DRUGMATRIX: Atrial Natriuretic Factor (ANF) radioligand binding (ligand: [125I] ANF (rat)); format: cell membranes, Cavia porcellus, Dunkin-Hartley, Adrenal gland, Membrane; conditions: Not Active = under 50% inhibition at 10 µM

Structure (SMILES) | IC50 ([1]; read-out: IC50) [nM] | Ki [1] [nM] | IC50 (Substance-P receptor) | IC50 [2] | IC50 [3] | Ki [3] | IC50 ([4]; read-out: IC50) [nM] | Ki ([4]; read-out: Ki) [nM] | IC50 (Melanocortin receptor 4) | IC50 [5] | Ki [5] | IC50 ([1]; cho-k1) | IC50 [4] | Ki [4]
COc1ccccc1OCCNCC(O)COc1cccc2[nH]c3ccccc3c12 (configuration not stated) [CARVEDILOL] | 5.84 | 3.34 | Not Active | Not Active | Not Active | Not Active | 621 | 552 | Not Active | Not Active | Not Active | – | – | –
C[C@H](C(=O)O)c1ccc2oc(-c3ccc(F)cc3)nc2c1 [FLUNOXAPROFEN] | – | – | Not Active | Not Active | Not Active | Not Active | – | – | Not Active | Not Active | Not Active | Not Active | Not Active | Not Active
CCN1CCN(c2cc3c(cc2F)c(=O)c(C(=O)O)cn3C2CC2)CC1 [ENROFLOXACIN] | – | – | Not Active | Not Active | Not Active | Not Active | – | – | Not Active | Not Active | Not Active | Not Active | Not Active | Not Active
C[C@]12CC[C@@H](O)C[C@@H]1CC[C@@H]1[C@@H]2CC[C@]2(C)C(=O)CC[C@@H]12 [ANDROSTERONE] | – | – | Not Active | Not Active | Not Active | Not Active | – | – | Not Active | Not Active | Not Active | Not Active | Not Active | Not Active
O=C(NCCN1CCOCC1)c1ccc(Cl)cc1 [MOCLOBEMIDE] | – | – | Not Active | Not Active | Not Active | Not Active | – | – | Not Active | Not Active | Not Active | Not Active | Not Active | Not Active
NC(=O)CN1CCCC1=O | – | – | Not Active | Not Active | Not Active | Not Active | – | – | Not Active | Not Active | Not Active | Not Active | Not Active | Not Active
Oc1ccccc1 [PHENOL] | – | – | Not Active | Not Active | Not Active | Not Active | – | – | Not Active | Not Active | Not Active | Not Active | Not Active | Not Active
CCO [ALCOHOL] | – | – | Not Active | Not Active | Not Active | Not Active | – | – | Not Active | Not Active | Not Active | Not Active | Not Active | Not Active
COc1ccc(Cl)cc1C(=O)NCCc1ccc(S(=O)(=O)NC(=O)NC2CCCCC2)cc1 [GLYBURIDE] | – | – | Not Active | Not Active | Not Active | Not Active | – | – | Not Active | Not Active | Not Active | Not Active | Not Active | Not Active
OC[C@H]1O[C@@H]2O[C@H]3[C@H](O)[C@@H](O)[C@@H](O[C@H]4[C@H](O)[C@@H](O)[C@@H](O[C@H]5[C@H](O)[C@@H](O)[C@@H](O[C@H]6[C@H](O)[C@@H](O)[C@@H](O[C@H]7[C@H](O)[C@@H](O)[C@@H](O[C@H]8[C@H](O)[C@@H](O)[C@@H](O[C@H]1[C@H](O)[C@H]2O)O[C@@H]8CO)O[C@@H]7CO)O[C@@H]6CO)O[C@@H]5CO)O[C@@H]4CO)O[C@@H]3CO [BETADEX] | – | – | Not Active | Not Active | Not Active | Not Active | – | – | Not Active | Not Active | Not Active | Not Active | Not Active | Not Active
NC(N)=Nc1nc(CSCCC(N)=NS(N)(=O)=O)cs1 [FAMOTIDINE] | – | – | Not Active | Not Active | Not Active | Not Active | – | – | Not Active | Not Active | Not Active | Not Active | Not Active | Not Active
COc1cc(NC(C)CCCN)c2ncccc2c1 (configuration not stated) [PRIMAQUINE] | – | – | Not Active | Not Active | Not Active | Not Active | – | – | Not Active | Not Active | Not Active | Not Active | Not Active | Not Active
Cc1c(N)nc([C@H](CC(N)=O)NC[C@H](N)C(N)=O)nc1C(=O)N[C@H](C(=O)N[C@H](C)[C@@H](O)[C@H](C)C(=O)N[C@H](C(=O)NCCc1nc(-c2nc(C(=O)NCCC[S+](C)C)cs2)cs1)[C@@H](C)O)[C@@H](O[C@@H]1O[C@@H](CO)[C@@H](O)[C@H](O)[C@@H]1O[C@H]1O[C@H](CO)[C@@H](O)[C@H](OC(N)=O)[C@@H]1O)c1c[nH]cn1.[Br-] [BLEOMYCIN A2] | – | – | Not Active | Not Active | Not Active | Not Active | – | – | Not Active | Not Active | Not Active | Not Active | Not Active | Not Active
O=C(O)CNCP(=O)(O)O [GLYPHOSATE] | – | – | Not Active | Not Active | Not Active | Not Active | – | – | Not Active | Not Active | Not Active | Not Active | Not Active | Not Active
c1ccc2c(c1)Nc1ccccc1S2 [PHENOTHIAZINE] | – | – | Not Active | Not Active | Not Active | Not Active | – | – | Not Active | Not Active | Not Active | Not Active | Not Active | Not Active
OC[C@H]1OC2C3[C@@H](CO)OC(O[C@H]4[C@H](O)[C@@H](O)[C@@H](O[C@H]5[C@H](O)[C@@H](O)[C@@H](O[C@H]6[C@H](O)[C@@H](O)[C@@H](O[C@H]7[C@H](O)[C@@H](O)[C@@H](O[C@H]8[C@H](O)[C@@H](O)[C@@H](O[C@H]9[C@H](O)[C@@H](O)C(OC1[C@H](O)[C@H]2O)O[C@@H]9CO)O[C@@H]8CO)O[C@@H]7CO)O[C@@H]6CO)O[C@@H]5CO)O[C@@H]4CO)[C@H](O)[C@H]3O | – | – | Not Active | Not Active | Not Active | Not Active | – | – | Not Active | Not Active | Not Active | Not Active | Not Active | Not Active
CC(C)Cc1ccc([C@H](C)C(=O)O)cc1 [DEXIBUPROFEN] | – | – | Not Active | Not Active | Not Active | Not Active | – | – | Not Active | Not Active | Not Active | Not Active | Not Active | Not Active
CC(N)Cc1c[nH]c2ccc(OCc3cccs3)cc12 (configuration not stated) [BW-723C86] | 1130 | 644 | Not Active | Not Active | Not Active | Not Active | 3470 | 3080 | Not Active | Not Active | Not Active | – | – | –
CC(=O)[C@]1(O)Cc2c(O)c3c(c(O)c2[C@@H](O[C@H]2C[C@H](N)[C@H](O)[C@H](C)O2)C1)C(=O)c1ccccc1C3=O [IDARUBICIN] | – | – | Not Active | Not Active | Not Active | Not Active | – | – | Not Active | Not Active | Not Active | Not Active | Not Active | Not Active
NC(=O)NC(=O)Cc1ccccc1 [PHENACEMIDE] | – | – | Not Active | Not Active | Not Active | Not Active | – | – | Not Active | Not Active | Not Active | Not Active | Not Active | Not Active
Nc1ccc(C(=O)O)c(O)c1 [AMINOSALICYLIC ACID] | – | – | Not Active | Not Active | Not Active | Not Active | – | – | Not Active | Not Active | Not Active | Not Active | Not Active | Not Active
Nc1nc(N)c2nc(CNc3ccc(C(=O)N[C@@H](CCC(=O)O)C(=O)O)cc3)cnc2n1 [AMINOPTERIN] | – | – | Not Active | Not Active | Not Active | Not Active | – | – | Not Active | Not Active | Not Active | Not Active | Not Active | Not Active
